# Reference: patent US8946197B2, “Transglutaminase TG2 inhibitors, pharmaceutical compositions, and methods of use thereof” (CHDI Foundation, Inc., priority 2009, dated 2015)
# pIC50: −log10 of the molar value. “And” between values parts separate entries of the source, which are not always exact repeats. Identical values can stand only once.
# Target: T1, human TG2 (Homo sapiens, UniProt P21980)
# T1 sequence (P21980 1-687): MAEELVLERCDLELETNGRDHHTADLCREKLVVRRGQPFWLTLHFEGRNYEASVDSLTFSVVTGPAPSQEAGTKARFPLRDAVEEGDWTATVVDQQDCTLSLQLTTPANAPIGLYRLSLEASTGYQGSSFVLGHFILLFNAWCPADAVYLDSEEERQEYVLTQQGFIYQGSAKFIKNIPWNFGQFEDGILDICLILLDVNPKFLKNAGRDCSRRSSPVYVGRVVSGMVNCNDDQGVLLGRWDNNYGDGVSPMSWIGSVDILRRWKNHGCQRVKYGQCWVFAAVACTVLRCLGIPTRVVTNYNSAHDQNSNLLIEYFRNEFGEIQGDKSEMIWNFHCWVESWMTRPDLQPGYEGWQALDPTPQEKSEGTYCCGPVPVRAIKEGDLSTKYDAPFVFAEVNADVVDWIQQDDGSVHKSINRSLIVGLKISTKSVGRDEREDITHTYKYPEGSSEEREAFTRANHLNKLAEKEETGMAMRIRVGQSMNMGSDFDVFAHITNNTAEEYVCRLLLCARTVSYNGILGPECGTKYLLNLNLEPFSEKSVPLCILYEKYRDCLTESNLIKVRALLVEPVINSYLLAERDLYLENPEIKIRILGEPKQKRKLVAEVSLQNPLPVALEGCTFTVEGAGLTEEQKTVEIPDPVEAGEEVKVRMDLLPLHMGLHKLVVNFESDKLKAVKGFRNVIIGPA
# Assay: fluorescent screening assay for human TG2
# Format: biochemical
# Conditions: 20 nM TG2, 8 μM N,N-dimethylated Casein, 16 μM KxD, pH 7.4, 37° C
# Procedure: (§1) The fluorescent screening assay for human TG2 was performed as described herein: Assay conditions were 20 nM TG2, 8 μM N,N-dimethylated Casein (NMC) and 16 μM K×D (used for all transglutaminase assays) in 25 mM Hepes, pH 7.4, 250 mM NaCl, 2 mM MgCl2, 0.5 mM CaCl2, 0.2 mM DTT, 0.05% Pluronic F-127 at 37° C. A time point was taken with a microplate reader (Safire or Ultra, Tecan; ex: 350 nm, em: 535 nm) every 3 minutes for up to 2 hours and the initial linear reaction progress was used to determine the reaction velocity as a measure for enzyme activity. Assay conditions were identical for human TG6 and similar for human TG1 and mouse TG2 apart from enzyme concentration (mTG2 at 5 nM; TG1 at 10 nM) and CaCl2 concentration (0.2 mM for mTG2; 0.05 mM for TG1). Factor XIIIa was activated using 0.1 μg/μl thrombin (Sigma) in 35 mM Tris pH 8.0 for 20 min at 30° C. and the transamidation reaction was performed with 20 nM Factor XIIIa in 50 mM Tris pH 8.0, 1.25 mM CaCl2, 0.05% Pluronic, 0.2 mM DTT. TG3 was activated with 0.02 μg/μl thrombin under the same conditions as Factor XIIIa and assay conditions were 10 nM TG3 in 50 mM Hepes, pH 8, 20 mM CaCl2, 0.2 mM DTT, 0.05% Pluronic F-127.
# as §1, with “A” for “The”
row,pIC50,Structure (SMILES)
1,4.60 to 6.00,CC(C)(C)OC(=O)N1CCN(S(=O)(=O)c2ccc(NC(=O)/C=C/Cl)cc2)CC1 [(E)-tert-butyl 4-(4-(3-chloroacrylamido)phenylsulfonyl)piperazine-1-carboxylate]
2,4.60 to 6.00,C/C=C/C(=O)Nc1ccc(S(=O)(=O)N2CCN(C(=O)OC(C)(C)C)CC2)cc1 [(E)-tert-butyl 4-(4-but-2-enamidophenylsulfonyl)piperazine-1-carboxylate]
3,6.00 to 7.00,CC(C)(C)OC(=O)N1CCN(S(=O)(=O)c2ccc(NC(=O)/C=C\Cl)cc2)CC1 [(Z)-tert-butyl 4-(4-(3-chloroacrylamido)phenylsulfonyl)piperazine-1-carboxylate]
4,4.60 to 6.00,C/C=C\C(=O)Nc1ccc(S(=O)(=O)N2CCN(C(=O)OC(C)(C)C)CC2)cc1 [(Z)-tert-butyl 4-(4-but-2-enamidophenylsulfonyl)piperazine-1-carboxylate]
5,6.00 to 7.00 and > 7.00,C=CC(=O)Nc1ccc(S(=O)(=O)N2CCC(N(C)C(=O)C34CC5CC(CC(C5)C3)C4)CC2)cc1 [Adamantane-1-carboxylic acid [1-(4-acryloylamino-benzenesulfonyl)-piperidin-4-yl]-methyl-amide]
6,6.00 to 7.00 and > 7.00,C=CC(=O)Nc1ccc(S(=O)(=O)N2CCN(C(=O)Cc3cccc(Oc4ccccc4)c3)CC2)cc1 [N-(4-{4-[2-(3-Phenoxy-phenyl)-acetyl]-piperazine-1-sulfonyl}-phenyl)-acrylamide]
7,6.00 to 7.00 and > 7.00,C=CC(=O)Nc1ccc(S(=O)(=O)N2CCN(C(=O)Cc3ccc(Oc4ccccc4)cc3)CC2)cc1 [N-(4-{4-[2-(4-Phenoxy-phenyl)-acetyl]-piperazine-1-sulfonyl}-phenyl)-acrylamide]
8,4.60 to 6.00,C=CC(=O)Nc1ccc(S(=O)(=O)N(C)Cc2ccc(CN3CCN(C)CC3)cc2)cc1 [N-(4-{Methyl-[4-(4-methyl-piperazin-1-ylmethyl)-benzyl]-sulfamoyl}-phenyl)-acrylamide]
9,4.60 to 6.00,C=CC(=O)Nc1cccc(S(=O)(=O)N2CCN(Cc3ccccc3)CC2)c1 [N-[3-(4-Benzyl-piperazine-1-sulfonyl)-phenyl]-acrylamide]
10,4.60 to 6.00,C=CC(=O)Nc1cccc(S(=O)(=O)N2CCN(CCc3ccccc3)CC2)c1 [N-[3-(4-Phenethyl-piperazine-1-sulfonyl)-phenyl]-acrylamide]
11,4.60 to 6.00,C=CC(=O)Nc1cccc(S(=O)(=O)N2CCN(c3ccccc3)CC2)c1 [N-[3-(4-Phenyl-piperazine-1-sulfonyl)-phenyl]-acrylamide]
12,4.60 to 6.00,C=CC(=O)Nc1cccc(S(=O)(=O)N2CCNCC2)c1 [N-[3-(piperazine-1-sulfonyl)-phenyl]-acrylamide]
13,4.60 to 6.00,C=CC(=O)Nc1ccc(S(=O)(=O)N2CCNCC2)c(OC)c1 [N-[3-Methoxy-4-(piperazine-1-sulfonyl)-phenyl]-acrylamide]
14,4.60 to 6.00,C=CC(=O)Nc1ccc(S(=O)(=O)N2CCNCC2)c(C)c1 [N-[3-Methyl-4-(piperazine-1-sulfonyl)-phenyl]-acrylamide]
15,4.60 to 6.00,C=CC(=O)Nc1ccc(S(=O)(=O)NC2CCCN(CC)C2)cc1 (centres unmarked) [N-[4-(1-Ethyl-piperidin-3-ylsulfamoyl)-phenyl]-acrylamide]
16,4.60 to 6.00,C=CC(=O)Nc1ccc(S(=O)(=O)NC(C)C(=O)N2CCCCC2)cc1 (centres unmarked) [N-[4-(1-Methyl-2-oxo-2-piperidin-1-yl-ethylsulfamoyl)-phenyl]-acrylamide]
17,> 7.00 and 6.00 to 7.00,"C=CC(=O)Nc1ccc(S(=O)(=O)N2CCN(c3cnccn3)CC2)cc1 [N-[4-(2,3,5,6-Tetrahydro-[1,2′]bipyrazinyl-4-sulfonyl)-phenyl]-acrylamide]"
18,4.60 to 6.00,C=CC(=O)Nc1ccc(S(=O)(=O)N2CCN(C34CC5CC(CC(C5)C3)C4)CC2)cc1 [N-[4-(4-Adamantan-1-yl-piperazine-1-sulfonyl)-phenyl]-acrylamide]

row,pIC50,Structure (SMILES)
1,4.60 to 6.00,C=CC(=O)Nc1ccc(S(=O)(=O)N2CCC(N)CC2)cc1 [N-[4-(4-Amino-piperidine-1-sulfonyl)-phenyl]-acrylamide]
2,> 7.00 and 6.00 to 7.00,C=CC(=O)Nc1ccc(S(=O)(=O)N2CCN(c3nc4ccccc4o3)CC2)cc1 [N-[4-(4-Benzooxazol-2-yl-piperazine-1-sulfonyl)-phenyl]-acrylamide]
3,> 7.00 and 6.00 to 7.00,C=CC(=O)Nc1ccc(S(=O)(=O)N2CCN(c3nc4ccccc4s3)CC2)cc1 [N-[4-(4-Benzothiazol-2-yl-piperazine-1-sulfonyl)-phenyl]-acrylamide]
4,4.60 to 6.00,C=CC(=O)Nc1ccc(S(=O)(=O)N2CCN(c3cccc(-c4ccccc4)c3)CC2)cc1 [N-[4-(4-Biphenyl-3-yl-piperazine-1-sulfonyl)-phenyl]-acrylamide]
5,4.60 to 6.00,C=CC(=O)Nc1ccc(S(=O)(=O)N2CCN(Cc3ccc(-c4ccccc4)cc3)CC2)cc1 [N-[4-(4-Biphenyl-4-ylmethyl-piperazine-1-sulfonyl)-phenyl]-acrylamide]
6,6.00 to 7.00 and > 7.00,C=CC(=O)Nc1ccc(S(=O)(=O)N2CCN(C(=O)C3CCCC3)CC2)cc1 [N-[4-(4-Cyclopentanecarbonyl-piperazine-1-sulfonyl)-phenyl]-acrylamide]
7,6.00 to 7.00 and > 7.00,C=CC(=O)Nc1ccc(S(=O)(=O)N2CCN(C(=O)C3CC3)CC2)cc1 [N-[4-(4-Cyclopropanecarbonyl-piperazine-1-sulfonyl)-phenyl]-acrylamide]
8,4.60 to 6.00,"C=CC(=O)Nc1ccc(S(=O)(=O)N2CCC(c3ccco3)=Nc3ccccc32)cc1 [N-[4-(4-Furan-2-yl-2,3-dihydro-benzo[β][1,4]diazepine-1-sulfonyl)-phenyl]-acrylamide]"
9,> 7.00 and 6.00 to 7.00,"C=CC(=O)Nc1ccc(S(=O)(=O)N2CCN(c3nccc4occc34)CC2)cc1 [N-[4-(4-Furo[3,2-c]pyridin-4-yl-piperazine-1-sulfonyl)-phenyl]-acrylamide]"
10,> 7.00 and 6.00 to 7.00,C=CC(=O)Nc1ccc(S(=O)(=O)N2CCN(c3nccc4ccccc34)CC2)cc1 [N-[4-(4-Isoquinolin-1-yl-piperazine-1-sulfonyl)-phenyl]-acrylamide]
11,4.60 to 6.00,C=CC(=O)Nc1ccc(S(=O)(=O)N2CCN(c3ccc4ccccc4c3)CC2)cc1 [N-[4-(4-Naphthalen-2-yl-piperazine-1-sulfonyl)-phenyl]-acrylamide]
12,6.00 to 7.00 and > 7.00,C=CC(=O)Nc1ccc(S(=O)(=O)N2CCN(c3ccccn3)CC2)cc1 [N-[4-(4-Pyridin-2-yl-piperazine-1-sulfonyl)-phenyl]-acrylamide]
13,> 7.00 and 6.00 to 7.00,C=CC(=O)Nc1ccc(S(=O)(=O)N2CCN(c3ncccn3)CC2)cc1 [N-[4-(4-Pyrimidin-2-yl-piperazine-1-sulfonyl)-phenyl]-acrylamide]
14,6.00 to 7.00 and > 7.00,C=CC(=O)Nc1ccc(S(=O)(=O)N2CCN(c3nccs3)CC2)cc1 [N-[4-(4-Thiazol-2-yl-piperazine-1-sulfonyl)-phenyl]-acrylamide]
15,> 7.00 and 6.00 to 7.00,"C=CC(=O)Nc1ccc(S(=O)(=O)N2CCN(c3ncnc4ccsc34)CC2)cc1 [N-[4-(4-Thieno[3,2-d]pyrimidin-4-yl-piperazine-1-sulfonyl)-phenyl]-acrylamide]"
16,6.00 to 7.00 and > 7.00,"C=CC(=O)Nc1ccc(S(=O)(=O)N2CCc3cc(S(=O)(=O)N(C)C)ccc32)cc1 [N-[4-(5-Dimethylsulfamoyl-2,3-dihydro-indole-1-sulfonyl)-phenyl]-acrylamide]"
17,4.60 to 6.00,C=CC(=O)Nc1ccc(S(=O)(=O)N2CCNCC2)cc1 [N-[4-(piperazine-1-sulfonyl)-phenyl]acrylamide]
